# Measurements published in patent publication US20260174862A1, “PHARMACEUTICAL COMPOSITION COMPRISING PRMT5 INHIBITOR AND PD-1/PD-L1 INHIBITOR” (APEIRON THERAPEUTICS (HONG KONG) LTD., priority 2024, published 2026).
# Test system: DuNN MTAP KO cells
# Test: In vivo pharmacodynamic study in C3H mouse model of tibial orthotopic xenograft with DuNN MTAP KO cells
# Conditions: for Tumor volume (mean): tibial orthotopic DuNN MTAP KO tumor, compound D 1 mg/kg PO QD, PD-1 antibody 5 mg/kg I.P. QW, n=6
# Description: Example 1: In Vivo Pharmacodynamic Study of Compound D in C3H Mouse Model of Tibial Orthotopic Xenograft with DuNN MTAP KO Cells
# Cell culture: […] DuNN MTAP KO cells (provided by the Experimental Animal Center of Shanghai First People's Hospital) were cultured in vitro monolayer under the conditions of adding 10% fetal bovine serum and 1% Antibiotic-Antimycotic to DMEM medium, and culturing in a 5% CO2 incubator at 37° C. Pancreatin-EDTA was used twice a week for routine digestion and passage. When the cell saturation is 80%-90% and the number of cells reached the requirement, the cells were collected, counted, and inoculated.
# Animals: C3H normal mice, female, 4-6 weeks old, weighing 18-22 g. A total of 30 animals were required (24 enrolled, surplus).
# Tumor inoculation: DUNN cells were digested with 0.25% pancreatin-EDTA solution to make them into a single cell suspension, washed with PBS buffer and the cell density was adjusted to 1×10^7/ml for further use. On the day of the experiment, mice were intraperitoneally injected with 0.5% sodium pentobarbital solution at a dose of 40 mg/kg to anesthetize them. A bone hole with a diameter of about 1 mm was drilled in the upper end of the right hindlimb tibia with a 1 ml syringe to reach the marrow cavity. Be careful not to penetrate the contralateral cortical bone and cause fractures or bleeding. A 1 ml syringe and a 25 G needle were used to draw the DUNN cell suspension and it was slowly injected into the tibial bone marrow cavity of the experimental group mice at a dose of 30 μl. Be careful not to cause cell reflux or leakage. After injection, the surgical field was disinfected with 75% alcohol, and the mice were returned to their cages, covered with sterile dressings, kept warm until they woke up, and then continued to be housed for observation. Randomized dosing began when the average tumor volume reached about 150 mm^3. At the end of the experiment, mice were intraperitoneally injected with 0.5% sodium pentobarbital solution at a dose of 120 mg/kg to euthanize them. Their tibia and tumor tissues were removed, fixed with 10% formaldehyde, paraffin sections were made, stained with HE, and the histological morphology and invasion of the tumors were observed under a microscope. The expression of proliferation indicators such as Ki-67 and PCNA in tumor cells was detected by immunohistochemistry.
# Administering volume: 10 μL/g based on the weight of mice. If the weight loss exceeds 15%, stop administering immediately and resume it after the weight loss returns to less than 10%.
# Animal grouping: Animals were weighed before administration and tumor volumes were measured. Randomized grouping was based on tumor volumes (randomized block design).
# Experimental indicators: were used to examine whether tumor growth was inhibited, delayed or cured. The tumor diameter was measured twice a week with a vernier caliper. The calculation equation for tumor volumes is: V=0.5a×b^2, where a and b represent the major and minor diameters of the tumor, respectively.
# The antitumor efficacy of the compound was evaluated by TGI (%) or tumor proliferation rate T/C (%). TGI (%) reflects the tumor growth inhibition. Calculation of TGI (%): TGI (%)=[1−(average tumor volume at the end of administering in a treatment group-average tumor volume at the start of administering in this treatment group)/(average tumor volume at the end of treatment in the solvent control group-average tumor volume at the start of treatment in the solvent control group)]×100%.
# Tumor proliferation rate T/C (%): The calculation equation is as follows: T/C (%)=Ti/Vi×100%. Where Vi is the average tumor volume of the solvent control group at a certain measurement, and Ti is the average tumor volume of the treatment group at the same measurement. […]
smiles,measurement,setting,value
CN(C(=O)c1cc2c(cc1F)nc(N)c1cncn12)[C@@H]1COc2cc(C(F)(F)F)ccc21 [Compound D],tumor growth inhibition (TGI),"25-day study, compound D 1 mg/kg oral once daily, anti-PD-1 antibody 5 mg/kg intraperitoneal, C3H mice, DUNN tibial orthotopic model",30.9%
same,Tumor volume (mean),"Day 0, C3H mice",21.6 mm^3
same,Tumor volume (mean),"Day 4, C3H mice",35.7 mm^3
same,Tumor volume (mean),"Day 7, C3H mice",41.3 mm^3
same,Tumor volume (mean),"Day 10, C3H mice",52.2 mm^3
same,Tumor volume (mean),"Day 14, C3H mice",68.7 mm^3
same,Tumor volume (mean),"Day 18, C3H mice",85.2 mm^3
same,Tumor volume (mean),"Day 21, C3H mice",136.9 mm^3
same,Tumor volume (mean),"Day 25, C3H mice",225.6 mm^3
same,statistical significance (P) vs. control,"one-way ANOVA, 25-day study, same doses",did not reach statistical significance
